In patent publication US8475783B2, “Apparatus and method for generating carbon dioxide as an attractant for biting arthropods” (priority 2011, dated 2013):

System: mosquitoes
Test: Field mosquito collection with CDC-type mosquito trap baited with carbon dioxide
Type: in vivo
Settings: for mosquitoes collected: carbon dioxide flow rate 250 mL/min
Description: As in Example 2, except that the sodium bicarbonate was delivered at 0.94 g·min so as to give a carbon dioxide flow rate of 250 mL/min. The gas outlet was coupled to a CDC-type mosquito trap, available from the John W. Hock Company of Gainesville Fla., and allowed to collect mosquitoes for 12 hours. For comparison, a similar trap but with carbon dioxide from a tank was placed about 100 m away. Sites were selected so as to provide a testing area that is known to be infested by mosquitoes and to provide similar terrain. In the comparison apparatus care was taken to use the same carbon dioxide flow rate.

## O=C=O [CO2 Gas Tank, carbon dioxide]
Aug. 2, 2010, 12 hours
  mosquitoes collected: 12
Aug. 5, 2010, 12 hours
  mosquitoes collected: 1
Jul. 8, 2010, 12 hours
  mosquitoes collected: 73
Jul. 12, 2010, 12 hours
  mosquitoes collected: 49
Jul. 14, 2010, 12 hours
  mosquitoes collected: 14
Jul. 15, 2010, 12 hours
  mosquitoes collected: 73
Jul. 20, 2010, 12 hours
  mosquitoes collected: 53
Jun. 23, 2010, 12 hours
  mosquitoes collected: 99
Jun. 29, 2010, 12 hours
  mosquitoes collected: 34
Sum over 9 non-consecutive days, 12 hours each, 250 mL/min carbon dioxide
  Total collected (mosquitoes): 408
